Experimental data reported in patent US7947854B2, “Bis-cationic compounds and use thereof” (The University of Sydney, priority 2003, dated 2011).
Read-outs that look alike come from different tables or passages of the source.

Tests used:
[1] = system: secreted phospholipase B (PLB activity); assay: Radiometric assay, secreted PLB activity; assay type: biochemical, Cryptococcus neoformans H99; conditions: for PLB, percentage inhibition of activity: Secretory Cryptococcal H99 Phospholipase
Description: Fungal isolates and media. […] Isolate H99 was kindly supplied by Dr. Gary Cox (Duke University Medical Center, Durham, N.C., USA), and subcultured onto Sabouraud dextrose agar (SDA) at 30° C.
Preparation of supernatants containing secreted phospholipase activities. Isolate H99 was grown to confluence on SDA in 16 cm diameter Petri dishes for 72 h at 30° C. in air. Cells scraped from 10-20 dishes were washed sequentially with isotonic saline and imidazole buffer (10 mM imidazole, 2 mM CaCl2, 2 mM Mg Cl2, 56 mM D-Glucose, made up in isotonic saline, pH 5.5), resuspended in a volume of this buffer of about 10% of the cell volume, and incubated for 24 h at 37° C. The cell-free supernatant was separated by centrifugation as previously described and stored at −70° C.
Radiometric assay method for phospholipases. Enzyme activities were measured as described previously in a final volume of 125 μL at 37° C. For the determination of secreted PLB activity, carrier dipalmitoyl phosphatidylcholine (DPPC, final concentration 800 μM) and 1,2-di[1-^14C] palmitoyl phosphatidylcholine (20,000 dpm) were dried under nitrogen and suspended in 125 mM imidazole acetate buffer (assay buffer, pH 4.0) by sonication using a Branson 450 sonifier. The reaction time was 22 min, using 1 μg total protein and PLB activity was determined by the rate of decrease of the radiolabelled PC substrate, with appearance of the label in free fatty acid. This assay also simultaneously allows for the determination of phospholipase A, C and D activities. These activities were measured by the appearance of radiolabel from PC in Lyso PC, diacylglycerol and phosphatidic acid, respectively.
All reactions were terminated by adding 0.5 mL of chloroform:methanol (2:1 v/v). The reaction products were extracted by the method as disclosed in Bligh, E. C. and W. J. Dyer. 1959 ‘A rapid method of total lipid extraction and purification.’ Can. J. Biochem. Physiol. 37:911-917, separated by TLC and quantified as previously described. In the case of PLC activity, the TLC plates were developed in petroleum ether (BP 60-80° C.): diethyl ether: acetic acid (90:15:1, v/v/v) instead of chloroform:methanol:water (65:25:4, v/v/v).
Preparation of inhibitors and use in assays. The following compounds were tested (for structures, see FIG. 2): compound 1, 1,12-bis(tributylphosphonium)dodecane dibromide (Fluka AG, Buchs, Switzerland); compound 2, 1,10-bis(tributylammonium)-decane dibromide; compound 3, 1,12-bis(tributylammonium)do-decane dibromide (both synthesised in-house); compound 4, 1,10-bis(trimethylammonium)decane dibromide [“decamethonium”] (Sigma, St. Louis Mo., USA). All compounds were prepared as stock solutions of 700 μM in assay buffer containing 5 mM EDTA, which was then diluted serially with buffer to obtain solutions of 70, 7, 0.7 and 0.07 μM. In each assay, 45 μL of these solutions was used, and the final volume of 125 μL was made up of substrate, enzyme and buffer. The radiometric assay was carried out as above. Inhibition was calculated as the percent of substrates (DPPC or Lyso-PC) remaining in the case of PLB and LPL activities, or of DPPC produced, in the case of the LPTA activity. The amounts converted, or produced, in the inhibitor-free control were normalised to 100%, and the inhibition calculated against it. All assays were done in triplicate.
Under these conditions only PLB, LPL and LPTA activities (both secreted and cell-associated) were measured. Initially, compounds deemed to be potential inhibitors were assayed at 25 and 250 μM. Those showing some inhibition were then also assayed at 2.5 and 0.25 μM.

[2] = molecular target: T1, Porcine pancreatic phospholipase A2 (Sus scrofa, UniProt P00592); assay: Pancreatic phospholipase assay; assay type: biochemical; conditions: read-out: ppPLA2, percentage inhibition of activity
T1 construct: purchased Sigma, St. Louis MO, USA
Description: Pancreatic phospholipase assay. Porcine pancreatic phospholipase A2 suspension in 3.2M ammonium sulfate (2.9 mg protein/mL, Sigma St.Louis Mo., USA) was used. One part of well mixed enzyme suspension was added to 4 parts of buffer (10 mM Tris/HCl, pH 8.2; 10 mM CaCl2. Activity and inhibition by test compounds was then measured by the radiometric method described in Example 2 for fungal PLB activity. However, 25 μL enzyme solution was used, and the reaction time was 1 hour. These conditions result in ˜60% substrate conversion in the inhibitor-free control.

[3] = system: Cryptococcus neoformans ATCC 90112; assay: Antifungal susceptibility testing, microdilution MIC; assay type: cell-based; conditions: Cryptococcus neoformans, ATCC90112
Description: (§1) Antifungal susceptibility testing. The antifingal activity of the compounds was measured by a standard microdilution method. […] The fungal strains tested included Cryptococcus neoformans H99, Cryptococcus neoformans ATCC 90112 and Candida albicans ATCC 10231. All tests were performed in duplicate.
(§2) A range of cationic compounds were assayed for antifungal activity in a standardised serial dilution sensitivity test against C. neoformans ([…]) and C. Albicans (ATCC 10231).

[4] = system: Candida albicans ATCC 10231; assay: as above; assay type: cell-based; conditions: Candida albicans, ATCC10231
Description: as §1, §2

T1 sequence (P00592 23-146): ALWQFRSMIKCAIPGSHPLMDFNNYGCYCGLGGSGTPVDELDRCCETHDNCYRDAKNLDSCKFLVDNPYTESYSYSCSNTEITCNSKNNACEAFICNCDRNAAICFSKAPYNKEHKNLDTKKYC

`CCCC[N+](CCCC)(CCCC)CCCCCCCCCC[N+](CCCC)(CCCC)CCCC` [Compound 2, 1,10-bis(tributylammonium)-decane dibromide] was tested, and the “PLB assay (% inhibition)” value ([1]; 0.25 μM) was 0%, the “PLB, percentage inhibition of activity” value ([1]; 0.25 μM) was 0% and the “PLB assay (% inhibition)” value ([1]; 2.5 μM) was 30%. For the same molecule, the “PLB, percentage inhibition of activity” value ([1]; 2.5 μM) was 30%, the “PLB assay (% inhibition)” value ([1]; 25 μM) was 80% and the “PLB, percentage inhibition of activity” value ([1]; 25 μM) was 80%. For the same molecule, the “PLB assay (% inhibition)” value ([1]; 250 μM) was 90%, the “PLB, percentage inhibition of activity” value ([1]; 250 μM) was 90% and the inhibition at 0.25 µM ([2]; 0.25 μM) was 0%. It also gave an inhibition at 2.5 µM ([2]; 2.5 μM) of 0%, an inhibition at 25 µM ([2]; 25 μM) of 25% and an inhibition at 250 µM ([2]; 250 μM) of 65%. The MIC ([3]; Table 6, no visible growth after 72 h at 35° C., read-out: MIC C. neof. ATCC 90112) was 11 µM, the MIC ([3]; Table 7, read-out: MIC (μM) Crypto. (ATCC 90112)) was 11 µM and the MIC ([4]; Table 6, no visible growth after 48 h at 35° C., read-out: MIC C. albicans ATCC 10231) was 88 µM. It also gave an MIC ([4]; Table 7, read-out: MIC (μM) C. alb. (10231)) of 88 µM.
